Measurements reported in US20250281380A1, “Skincare Formulation for Multi-Modal Reduction of Acetylcholine Concentration and Activity” (JAMRM, LLC, priority 2021, published 2025).

Tested on: ACh release, MatTek FT full-thickness model of human skin (human epidermal keratinocytes and human dermal fibroblasts)
Experiment: MatTek FT tissue model, ACh concentration in the tissue culture media
Type: cell-based
Text: The MatTek FT™ tissue model was used to determine whether treatment with the test formulation would impact ACh release in vitro. The MatTek FT™ tissue model is a three-dimensional, full-thickness model of human skin formed from cultured human epidermal keratinocytes and human dermal fibroblasts. […] The MatTek FT™ tissue model allows for the performance of preclinical studies to evaluate mechanisms of action for skincare products.
A first untreated tissue model served as a control sample and was maintained in a tissue culture media. A second tissue model was maintained in a tissue culture media and treated daily with the test formulation. A third tissue model was maintained in a tissue culture media and exposed to Neostigmine, an acetylcholinesterase inhibitor that prevents the breakdown of ACh in the tissue culture media. A fourth tissue model was maintained in a tissue culture media, treated daily with the test formulation, and exposed to Neostigmine. The amount of ACh created by each of the tissue models was determined by measuring the ACh concentration in the tissue culture media. The results can be seen in FIG. 1.

**Q.** How did the “accumulation of ACh (ACh concentration in tissue culture media)” value (FIG. 1, tissue model exposed to Neostigmine alone (third tissue model), time not stated) turn out when `CN(C)C(=O)Oc1cccc([N+](C)(C)C)c1` [Neostigmine] was run?
**A.** about 200 picograms per ml of solution

**Q.** And the “ACh concentration at 72 hours, in words, effect of presence of neostigmine” value (FIG. 2, 72 hours, neostigmine in the untreated tissue model)?
**A.** relatively higher concentrations of ACh
